# Source: patent publication US20240342066A1, “HIGH POTENCY EMULSIONS” (Vertosa Inc., priority 0001, published 2024)
# Test system: skin
# Assay: Patch test for skin irritation and allergy
# Format: in vivo, human
# Conditions: positive control
# Description: These three emulsions were first evaluated for skin irritation and allergy studies using a patch test at a third-party skin care evaluation lab. The three pure emulsion formulas were tested at 20 mg/mL concentration on the patch on 55 subjects.
# The patches were prepared with each of the 3 different emulsion types separately. Each emulsion was prepared at 20 mg/g. The test was focused on the effects of the emulsion without the influence of any other skin care ingredients. The goal was to stress test if pure emulsion can cause any skin irritation. […]
# Below is the procedure of the patch test: • Step 1: Subjects were requested to bathe or wash as usual before arrival at the facility. • Step 2: Patches containing the test material were then affixed directly to the skin of the intrascapular regions of the back, to the right or left of the midline, and subjects were dismissed with instructions not to wet or expose the test area to direct sunlight. • Step 3: Patches remained in place for 48 hours after the first application. […] Test sites were evaluated by trained laboratory personnel 48 and 96 hours after application. • Step 7: In the event of an adverse reaction, the area of erythema and edema were measured. […]
structure (smiles),measurement,value
"CCCCCCCCCCCCOS(=O)(=O)[O-].[Na+] [2.0% Sodium Lauryl Sulfate Solution, Sodium Lauryl Sulfate]",subjects with a Grade 1 reaction,8 subjects
